Columns and labels:
Assay type in all cases: in vivo
rice [1] = assay: Treatment of soil under submerged condition, post-emergence (Test 5), injury; details: 30 g ai/a granule, 30 days later
Experimental: (§1) 1/5000-are Wagner pots were filled with soil. Seeds or tubers of barnyardgrass, Monochoria vaginalis, bulrush, Sagittaria pygmaea, Cyperus serroylnus and Eleocharis kuroguwai were seeded or planted under submerged condition. Two pairs of rice seedlings (2-3 leaf stage), which had been reared in advance, were transplanted to each pot and were allowed to grow in a green house. Each pair consisted of two rice seedlings. When the barnyardgrass grew to two-leaf stage, each pot was treated with a granule which had been prepared by processing a predetermined amount of the test composition in accordance with a similar method to the method described in Formulation Example 9. The state of emergence of weeds and the state of injury of rice were observed 30 days later.
(§2) In the table, the degrees of damages of the test plants and the degrees of injury of the rice are shown in a similar manner to Example 2.

narrowleaf waterplantain = assay: Petri dish test (Test 6); details: 336 h; seeds on filter paper, 25° C., 14 days; read-out: I80 (ppm)
Experimental: A filter paper was placed in each glass-made Petri dish having a diameter of 9 cm. A compound dissolved in acetone was added in a predetermined amount. The filter paper was then dried in air to remove acetone. Seeds of narrowleaf waterplantain were placed on the filter paper and 10 ml of water were poured into the Petri dish. The seeds were allowed to grow at 25° C. in a bright room. Fourteen days later, the state of growth of narrowleaf water-plantain was observed.
In the table, the degree of damages of the test plant was determined by comparing the state of growth of the plant with that of the plant in an untreated group and is shown in accordance with the following standard: […]

peanut = assay: Upland foliar application test (Test 3), crop injury; details: 30 g ai/a, foliar spray at 2-3 leaves, 30th day
Experimental: (§3) Resin-made 1/10000-are pots were filled with the soil of an upland field. Redroot pigweed, common lambsquarters, foxtail meadow, johnsongrass, barnyardgrass, green foxtail, large crabgrass, soybean, peanut and cotton were separately seeded and were allowed to germinate in a green house. When each plant grew to the stage of 2-3 leaves, an emulsion formulated from a predetermined amount of each test compound in a similar manner to the method described in Formulation Example 11 was diluted with water to a predetermined dilution rate and then sprayed at an application rate equal to 5 l per are onto the foliage of each plant by means of a pressure-operated ULV (ultra low volume) sprayer. Influence to the crops and weeds were observed on the 30th day after the spray of the herbicides. The results are shown in Table 4 in which the degree of damages of each test plant and the degree of injury to each crop are shown in a similar manner to Test 2.

cotton = assay: as above; details: 30 g ai/a, foliar spray at 2-3 leaves, 30th day
Experimental: as §3

soybean = assay: as above; details: 30 g ai/a, foliar spray at 2-3 leaves, 30th day
Experimental: as §3

Sagittaria pygmaea [2] = assay: Treatment of soil under submerged condition, pre-emergence (Test 4); details: 30 g ai/a granule, 30 days later
Experimental: as §1, with “seroylnus” for “serroylnus”, “germinate” for “grow”, “One day later (before emergence of weeds),” for “When the barnyardgrass grew to two-leaf stage,”
(§4) In the table, the degrees of damages of the test plants and the degrees of injury of rice are shown in a similar manner to Example 2.

bulrush [3] = assay: as above; details: 30 g ai/a granule, 30 days later
Experimental: as §1, with “seroylnus” for “serroylnus”, “germinate” for “grow”, “One day later (before emergence of weeds),” for “When the barnyardgrass grew to two-leaf stage,”
as §4

barnyardgrass [4] = assay: as above; details: 30 g ai/a granule, 30 days later
Experimental: as §1, with “seroylnus” for “serroylnus”, “germinate” for “grow”, “One day later (before emergence of weeds),” for “When the barnyardgrass grew to two-leaf stage,”
as §4

Sagittaria pygmaea [5] = assay: Treatment of soil under submerged condition, post-emergence (Test 5); details: 30 g ai/a granule, 30 days later
Experimental: as §1, §2

bulrush [6] = assay: as above; details: 30 g ai/a granule, 30 days later
Experimental: as §1, §2

barnyardgrass [7] = assay: as above; details: 30 g ai/a granule, post-emergence (barnyardgrass two-leaf stage), 30 days later
Experimental: as §1, §2

foxtail meadow = assay: Upland foliar application test (Test 3); details: 30 g ai/a, foliar spray at 2-3 leaves, 30th day
Experimental: as §3

common lambsquarters = assay: Upland foliar application test (Test 3); details: 30 g ai/a, foliar spray at 2-3 leaves, 30th day
Experimental: as §3

redroot pigweed = assay: Upland foliar application test (Test 3); details: 30 g ai/a, foliar spray at 2-3 leaves, 30th day
Experimental: as §3

barnyardgrass [8] = assay: Upland foliar application test (Test 3); details: 30 g ai/a, foliar spray at 2-3 leaves, 30th day
Experimental: as §3

green foxtail = assay: Upland foliar application test (Test 3); details: 30 g ai/a, foliar spray at 2-3 leaves, 30th day
Experimental: as §3

large crabgrass = assay: Upland foliar application test (Test 3); details: 30 g ai/a, foliar spray at 2-3 leaves, 30th day
Experimental: as §3

johnsongrass = assay: Upland foliar application test (Test 3); details: 30 g ai/a, foliar spray at 2-3 leaves, 30th day
Experimental: as §3

rice [9] = assay: Treatment of soil under submerged condition, pre-emergence (Test 4), injury; details: 30 g ai/a granule, 30 days later
Experimental: as §1, with “seroylnus” for “serroylnus”, “germinate” for “grow”, “One day later (before emergence of weeds),” for “When the barnyardgrass grew to two-leaf stage,”
as §4

COC(=O)c1ccccc1Oc1nc(OC)cc(OC)n1 [A, reference compound]
5 (0-5 (Death)): Injury Rice (rice [1]) | Injury Peanut (peanut) | Injury Cotton (cotton) | Injury Soybean (soybean) | Herbicidal effects Bulrush (bulrush [3]) | Herbicidal effects Barnyardgrass (barnyardgrass [4]) | Herbicidal effects Barnyardgrass (barnyardgrass [7]) | Herbicidal effects Foxtail meadow (foxtail meadow) | Herbicidal effects Redroot pigweed (redroot pigweed) | Herbicidal effects Barnyardgrass (barnyardgrass [8]) | Herbicidal effects Green foxtail (green foxtail) | Herbicidal effects Large crabgrass (large crabgrass) | Herbicidal effects Johnsongrass (johnsongrass) | Injury Rice (rice [9])
4 (6-10 (Severe damages)): Herbicidal effects Sagittaria Pygmaea (Sagittaria pygmaea [2]) | Herbicidal effects Sagittaria Pygmaea (Sagittaria pygmaea [5]) | Herbicidal effects Bulrush (bulrush [6]) | Herbicidal effects Common lambsquarters (common lambsquarters)
1 µg/mL: IC80 (narrowleaf waterplantain)

COc1cc(OC)nc(Oc2ccccc2C=O)n1 [B, reference compound]
3 (11-40 (Medium damages)): Herbicidal effects Bulrush (bulrush [3]) | Herbicidal effects Barnyardgrass (barnyardgrass [4]) | Herbicidal effects Common lambsquarters (common lambsquarters) | Herbicidal effects Redroot pigweed (redroot pigweed)
5 (0-5 (Death)): Injury Rice (rice [1]) | Injury Peanut (peanut) | Injury Cotton (cotton) | Injury Soybean (soybean) | Herbicidal effects Sagittaria Pygmaea (Sagittaria pygmaea [2]) | Herbicidal effects Bulrush (bulrush [6]) | Herbicidal effects Barnyardgrass (barnyardgrass [7]) | Injury Rice (rice [9])
1 µg/mL: IC80 (narrowleaf waterplantain)
4 (6-10 (Severe damages)): Herbicidal effects Sagittaria Pygmaea (Sagittaria pygmaea [5]) | Herbicidal effects Foxtail meadow (foxtail meadow) | Herbicidal effects Barnyardgrass (barnyardgrass [8]) | Herbicidal effects Green foxtail (green foxtail) | Herbicidal effects Large crabgrass (large crabgrass) | Herbicidal effects Johnsongrass (johnsongrass)

CON=Cc1ccccc1Oc1nc(OC)cc(OC)n1 [Compound No. 1, O-methyl--2-(4,6-dimethoxy-2-pyrimidinyloxy)benzaldoxime]
3 (11-40 (Medium damages)): Herbicidal effects Sagittaria Pygmaea (Sagittaria pygmaea [2]) | Herbicidal effects Sagittaria Pygmaea (Sagittaria pygmaea [5]) | Herbicidal effects Large crabgrass (large crabgrass)
25 µg/mL: IC80 (narrowleaf waterplantain)
4 (6-10 (Severe damages)): Herbicidal effects Barnyardgrass (barnyardgrass [7]) | Herbicidal effects Common lambsquarters (common lambsquarters)
0 (91-100 (No damages)): Injury Rice (rice [1]) | Injury Peanut (peanut) | Injury Cotton (cotton) | Injury Soybean (soybean) | Injury Rice (rice [9])
2 (41-70 (Small damages)): Herbicidal effects Bulrush (bulrush [3]) | Herbicidal effects Barnyardgrass (barnyardgrass [4])
5 (0-5 (Death)): Herbicidal effects Bulrush (bulrush [6]) | Herbicidal effects Foxtail meadow (foxtail meadow) | Herbicidal effects Redroot pigweed (redroot pigweed) | Herbicidal effects Barnyardgrass (barnyardgrass [8]) | Herbicidal effects Green foxtail (green foxtail) | Herbicidal effects Johnsongrass (johnsongrass)

C=CC(C)ON=Cc1ccccc1Oc1nc(OC)cc(OC)n1 (stereo not drawn) [Compound No. 2]
1 (71-90 (Slight damages)): Injury Rice (rice [9])
5 (0-5 (Death)): Herbicidal effects Barnyardgrass (barnyardgrass [4]) | Herbicidal effects Sagittaria Pygmaea (Sagittaria pygmaea [5]) | Herbicidal effects Bulrush (bulrush [6]) | Herbicidal effects Barnyardgrass (barnyardgrass [7]) | Herbicidal effects Foxtail meadow (foxtail meadow) | Herbicidal effects Barnyardgrass (barnyardgrass [8]) | Herbicidal effects Green foxtail (green foxtail) | Herbicidal effects Large crabgrass (large crabgrass) | Herbicidal effects Johnsongrass (johnsongrass)
100 µg/mL: IC80 (narrowleaf waterplantain)
0 (91-100 (No damages)): Injury Rice (rice [1]) | Injury Peanut (peanut) | Injury Cotton (cotton) | Injury Soybean (soybean)
4 (6-10 (Severe damages)): Herbicidal effects Sagittaria Pygmaea (Sagittaria pygmaea [2]) | Herbicidal effects Bulrush (bulrush [3]) | Herbicidal effects Common lambsquarters (common lambsquarters) | Herbicidal effects Redroot pigweed (redroot pigweed)

COc1cc(OC)nc(Oc2ccccc2C=NOC2CCCCC2)n1 [Compound No. 3]
0 (91-100 (No damages)): Injury Rice (rice [1]) | Injury Peanut (peanut) | Injury Cotton (cotton) | Injury Soybean (soybean) | Injury Rice (rice [9])
100 µg/mL: IC80 (narrowleaf waterplantain)
4 (6-10 (Severe damages)): Herbicidal effects Bulrush (bulrush [3]) | Herbicidal effects Barnyardgrass (barnyardgrass [4]) | Herbicidal effects Common lambsquarters (common lambsquarters) | Herbicidal effects Redroot pigweed (redroot pigweed) | Herbicidal effects Large crabgrass (large crabgrass)
3 (11-40 (Medium damages)): Herbicidal effects Sagittaria Pygmaea (Sagittaria pygmaea [5]) | Herbicidal effects Bulrush (bulrush [6]) | Herbicidal effects Barnyardgrass (barnyardgrass [7])
5 (0-5 (Death)): Herbicidal effects Sagittaria Pygmaea (Sagittaria pygmaea [2]) | Herbicidal effects Foxtail meadow (foxtail meadow) | Herbicidal effects Barnyardgrass (barnyardgrass [8]) | Herbicidal effects Green foxtail (green foxtail) | Herbicidal effects Johnsongrass (johnsongrass)

C=CCON=Cc1ccccc1Oc1nc(OC)cc(OC)n1 [Compound No. 4]
100 µg/mL: IC80 (narrowleaf waterplantain)
0 (91-100 (No damages)): Injury Rice (rice [1]) | Injury Peanut (peanut) | Injury Cotton (cotton) | Injury Soybean (soybean) | Injury Rice (rice [9])
5 (0-5 (Death)): Herbicidal effects Barnyardgrass (barnyardgrass [7]) | Herbicidal effects Foxtail meadow (foxtail meadow) | Herbicidal effects Barnyardgrass (barnyardgrass [8]) | Herbicidal effects Green foxtail (green foxtail) | Herbicidal effects Johnsongrass (johnsongrass)
4 (6-10 (Severe damages)): Herbicidal effects Sagittaria Pygmaea (Sagittaria pygmaea [2]) | Herbicidal effects Bulrush (bulrush [3]) | Herbicidal effects Barnyardgrass (barnyardgrass [4]) | Herbicidal effects Bulrush (bulrush [6]) | Herbicidal effects Redroot pigweed (redroot pigweed)
3 (11-40 (Medium damages)): Herbicidal effects Sagittaria Pygmaea (Sagittaria pygmaea [5]) | Herbicidal effects Common lambsquarters (common lambsquarters) | Herbicidal effects Large crabgrass (large crabgrass)

From patent US5053070A, “Pyrimidine derivatives, preparation processes thereof, herbicide containing the same, and herbicidal compositions containing the same along with other active ingredient” (Mitsui Toatsu Chemicals, Incorporated, priority 1988, dated 1991)
